Measurements as given in paper PMC6522096, “Development and Evaluation of an ^18F-Radiolabeled Monocyclam Derivative for Imaging CXCR4 Expression” (Molecular Pharmaceutics, 2019).

Target: T1, CXCR4 (Homo sapiens, UniProt P61073)
T1 construct: full-length receptor overexpressed in U87.CD4.CXCR4 glioma cells
Assay: […]SDF-1 (CXCL12) displacement on U87.CD4.CXCR4 cells
Assay type: cell-based

T1 sequence (P61073 whole entry): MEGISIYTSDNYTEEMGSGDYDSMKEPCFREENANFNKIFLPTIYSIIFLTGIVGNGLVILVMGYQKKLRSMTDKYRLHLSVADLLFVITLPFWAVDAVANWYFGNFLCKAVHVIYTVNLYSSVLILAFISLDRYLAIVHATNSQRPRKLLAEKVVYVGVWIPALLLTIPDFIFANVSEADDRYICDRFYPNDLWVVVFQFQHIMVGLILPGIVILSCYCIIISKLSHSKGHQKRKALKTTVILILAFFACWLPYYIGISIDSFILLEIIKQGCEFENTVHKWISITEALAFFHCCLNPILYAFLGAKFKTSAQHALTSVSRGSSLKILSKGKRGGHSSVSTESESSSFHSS

SMILES	IC50 [nM]
c1ccc(CNCc2ccc(CN3CCCNCCNCCCNCC3)cc2)nc1 [AMD3465]	89.8 ± 3.5
Fc1ccc(CNCCNCc2ccc(CN3CCCNCCNCCCNCC3)cc2)cc1 [compound 5, N^1-(4-((1,4,8,11-Tetraazacyclotetradecan-1-yl)methyl)benzyl)-N^2-(4-fluorobenzyl)ethane-1,2-diamine]	111 ± 4
